Laboratory results reported in patent publication US20230310504A1, “PLATELET MEMBRANE COATED NANOPARTICLES AND USES THEREOF” (CELLO THERAPEUTICS, INC., priority 2020, published 2023).

Experiments:
[1] = system: MC38 murine colon adenocarcinoma; assay: Therapeutic efficacy in combination with doxorubicin in MC38 model; format: in vivo, C57BL/6 mice
Experimental: Therapeutic efficacy of PNP-R848 in combination with chemotherapy was also assessed (FIG. 8). […] Despite some promising initial results, all mice treated with doxorubicin, both with or without PNP-R848, succumbed after re-challenge with a 3-fold higher dose of cancer cells.
Therapeutic efficacy in combination with doxorubicin. Mice were implanted with 1 × 10^6 MC38 cells subcutaneously into the right flank, which were allowed to grow to an average size of ~30-40 mm^3. The mice received intratumoral treatments every other day for a total of 3 times. The treatment groups included: 8% sucrose (n = 6), free doxorubicin (n = 6), and doxorubicin + PNP-R848 (n = 6). Mice received 63 µg of doxorubicin and 15 µg of R848 per dose. For the combination treatment, doxorubicin and PNP-R848 were mixed pre-administration and the animal received one intratumoral injection containing both. Tumor growth and mouse weight were monitored every other day. Progression-free survival was defined as tumor volume < 200 mm^3. All the mice that rejected the initial MC38 inoculum were re-challenged subcutaneously using 3 × 10^6 MC38 cells on day 56 after the start of the first treatment. Five naive C57BL/6 mice that received the same MC38 tumor cell challenge were used as controls to verify tumorigenicity.

[2] = system: MC38 murine colon adenocarcinoma; assay: Therapeutic efficacy in a murine MC38 tumor model (15 µg and reduced 6 µg R848 dosage); format: in vivo, C57BL/6 mice; conditions: for long-term survival rate: intratumoral, every other day x3
Experimental: The antitumor efficacy of PNP-R848 was evaluated using an MC38 murine colon adenocarcinoma model in immunocompetent C57BL/6 mice (FIG. 4a). Each animal received a subcutaneous injection of 1 × 10^6 MC38 cells in the right flank, and the average tumor size was allowed to reach ~30-40 mm^3. At this point, the mice started receiving one of the following treatments: 8% sucrose as a negative control, free R848, PEG-NP loaded with R848 (PEG-NP-R848), or PNP-R848, each at a drug dosage of 15 µg per injection. Treatments were administered intratumorally every other day for a total of 3 times, after which the mice were monitored regularly to assess therapeutic efficacy (FIGS. 4b-e). […] Tumor growth was considerably delayed when treating with either free R848 or PEG-NP-R848, but there was significant disease progression in a majority of the mice by approximately 30 days after the start of treatment. […] Treatment efficacy was also evaluated when reducing the drug dosage by 2.5-fold to 6 µg of R848 per injection (FIG. 6).
In order to determine if the surviving animals had developed long-term immunity against MC38 cancer cells, the mice were re-challenged with a 3-fold higher inoculum subcutaneously into the right flank 56 days after initiation of the first treatment (FIGS. 4c,d). For the survivors that had been treated with either dose of PNP-R848, the second tumor challenge was rejected at a 100% rate. […] The remainder of the surviving animals in the other groups all rejected the re-challenge, with no tumor progression observed at least 100 days after the start of the initial treatment.
Therapeutic efficacy in a murine MC38 tumor model. Mice were implanted with 1 × 10^6 MC38 cells subcutaneously into the right flank, which were allowed to grow to an average size of ~30-40 mm^3. The mice were then intratumorally treated every other day for a total of 3 times. […] Tumor growth and mouse weight were monitored every other day. […]
Therapeutic efficacy in a murine MC38 tumor model at a reduced R848 dosage. […] Tumor growth and mouse weight were monitored every other day. […]

SMILES	survival ([1]; 63 µg doxorubicin intratumoral x3)	outcome after re-challenge ([1]; 3-fold higher dose of cancer cells, day 56)	long-term survival rate ([2]; 6 µg R848 per injection)	long-term survival rate ([2]; 15 µg R848 per injection)	overall survival after the tumor re-challenge ([2]; 6-µg dosage, 3-fold higher inoculum, day 56)
COc1cccc2c1C(=O)c1c(O)c3c(c(O)c1C2=O)C[C@@](O)(C(=O)CO)C[C@@H]3O[C@H]1C[C@H](N)[C@H](O)[C@H](C)O1 [doxorubicin]	prolonged survival, the improvement was modest	succumbed			
CCOCc1nc2c(N)nc3ccccc3c2n1CC(C)(C)O [free R848, Resiquimod]			62.5%	28.6%	37.5%
